Assays:
AOM-induced colon tumors = assay: AOM-induced colorectal tumorigenesis, UA-containing diet; format: in vivo, mouse; conditions: FVB mice
Source text: Urolithin A containing diet (2.28 g/kg) or AIN− 93G control food (Brogaarden) were given ad libitum once introduced for experimental purpose at the indicated time. Animal experiments were approved by the Regierungsprasidium Darmstadt under animal application numbers F123/1009; F123/1062 and F123/2008.
Colorectal tumors were induced by 6 consecutive weekly injections of AOM on mice fed with food containing 2.28 g/kg Urolithin A (UA diet) or with control food. The diet was introduced one-week prior the first AOM injection and maintained until the end of the experiment at ˜20-24 weeks. The colons were collected for subsequent histological analysis as described below. For subcutaneous colorectal cancers, APTK organoids were mechanistically disrupted, incubated with Accutase to generate a single cell suspension and reconstituted in PBS 20% Matrigel (Corning) for subcutaneous transplantation. Tumor sizes were measured at the indicated time after transplantation and tumor volume quantified as ½(width2×length). Urolithin A or control food regiment were initiated either one week before tumor challenge or 11 days after tumor development. Therapeutic diets were maintained throughout the experiment unless indicated otherwise. […] CD8-depleting antibodies (InvivoMab anti-mouse CD8; Hoelzel; BE0061) or isotype controls (InvivoMab rat IgG2b isotyp; Hoelzel; BE0090) were applied every three days, starting at five days after tumor initiation. To study combination efficacy with immunotherapy, mice were injected i.p. with 100 μl nVivoMAb anti-mouse PD-1 (Hoelzel; BE0146) and InVivoMab mouse IgG2b isotype control (Hoelzel; BE0086) every 2 days, starting three days after tumor injection.
For histological analysis of colon tissue, colons were paraffin embedded using the “swiss roll” technique and serially sectioned at […]. […] AOM tumor lesion size and incidence were quantified using Aperio ImageScope software.

APTK organoids = assay: APTK tumor organoids treated with UA (lysosomes, mitochondria, MHC-I by flow cytometry); format: cell-based, mouse; conditions: increasing concentrations of UA
Procedure: APTK colorectal organoids which harbor mutations for Apc, Trp53 and Tgfbr2 as well as expression of oncogenic KraSG12D were established and maintained as previously described (Nicolas et al., 2022; Varga et al., 2020). APTK organoids were seeded in 6 wells suspension plates: 6 droplets of 50 l Matrigel (Corning) per well were used. To generate OVA-APTK, colon organoids were isolated from unchallenged OVA mice (The Jackson Laboratory) as previously described (Nicolas et al., 2022). Liposomes CRISPR/Cas9 technology-based transfection was used for targeted knockout of the following mutated colorectal cancer-related genes: Apc (gRNA: […])(SEQ ID NO:1), Trp53 gRNA: […]) (SEQ ID NO:2), and Tgfbr2 (gRNA: […]) (SEQ ID NO:3) as previously described (Schwank and Clevers, 2016). Cas9 plasmid (Addgene; #41815) was used along gRNA plasmids generated from addgene #41819 plasmid by cloning the gRNA of interest instead of GFP targeting gRNA. Firstly, Apc knockout (A) organoids were functionally selected by the withdrawal of R-spondin from the culture medium. Secondly, Apc Trp53 (AT) knockout organoids were selected for Trp53 loss with 5 μM of MDM2 inhibitor (Nutlin-3) (Biomole, cat no. 10004372). Thirdly, Apc Trp53 Tgfbr2 (APT) knockout organoids were selected with […] recombinant TGFβ (R&D Systems; 7666-MB). Finally, KrasG12D gain of function mutation was obtained by overexpressing the active murine version of Kras gene (cloned in house based on Addgene plasmid #111164, Map-S5) in APT organoids. Apc, Trp53, Tgfbr2 and KrasG12D (APTK) OVA organoids were selected by 2 μg/mL puromycin (Merck; 58-58-2) and withdrawal of EGF and noggin from the culture medium. In order to study the effect of UA on lysosome formation, mitochondria reduction as well as antigen presentation, organoids were treated with 25-50 μM UA for 24-48 h. Organoids were subsequently stained with a MHC-I antibody (AF6-88.5; 116516; BioLegend), Mitotracker Deep Red (250 nm; ThermoFisher) and Lysotracker Red DND-99 (75 nM; ThermoFisher).

[1] = system: CD19-CAR T cells / Nalm-6 cells; assay: CD19-CAR T cell generation in presence of UA and Nalm-6 killing; format: cell-based, human
[2] = AOM weekly for six weeks, oral UA diet 2.28 g/kg vs control diet

## O=c1oc2cc(O)ccc2c2ccc(O)cc12 [UA, Urolithin A]
AOM-induced colon tumors; [2]
  tumor incidence: significant decrease
  tumor size: significant decrease
AOM-induced colon tumors; AOM, oral UA diet 2.28 g/kg
  infiltration of CD3+ T cells into the colonic mucosa: increased infiltration
APTK organoids
  MitoTracker staining: loss of MitoTracker staining
  formation of lysosomes (lysotracker): dose-dependent formation of lysosomes
APTK organoids; 48 hours
  MHC-I expression: marked upregulation
[1]
  CAR gene delivery into CD8+ cells: did not impair
[1]; 24 h co-culture
  CD19 CAR-T cell mediated killing of NALM-6 leukemia cells: did not have a negative impact
[1]; three days after transduction
  markers of exhaustion (Tim3HiPD-1Hi CD8+CAR+): not affected
[1]; three days post transduction, upon UA exposure
  CAR expressing TSCM cells as share of CD8+ cells: about 60%

Source: patent US20240139149A1, “THERAPEUTIC USES OF UROLITHIN DERIVATIVES” (Vandria SA, priority 2022, published 2024)
